Legend:
Ruminococcaceae family [1] = test: Gut microbiota of mCRPC patients stratified by ADT regimen (whole genome metagenome); type: in vivo, human; settings: Abiraterone vs Enzalutamide
Description: FIG. 16—Different ADT regimens alter gut microbiota composition. (A) Pie chart representing the number of CRPC patients receiving Enzalutamide, Abiraterone or other treatment (Apalutamide, Docetaxel, Cabazitaxel or no active treatment) at the moment of the rectal swab. […] (C) Patients treated with enzalutamide (n=14) and apalutamide (n=1) were stratified according to the circulating testosterone level (≤10 ng/dL or >10 ng/dL). Pie charts show, within each group, the fraction of patients having Ruminococcus DSM_10044 in their gut microbiota.
Collection of patient feces. Patients with hormone-sensitive (HSPC) and metastatic CRPC consented to the analysis of their rectal swabs. […]
Whole genome metagenome analysis of patient feces. […] DNA was analyzed by Qubit (Invitrogen, Thermo Fisher Scientific, Waltham, USA) and integrity was checked by agarose gel electrophoresis.
Illumina TruSeq DNA libraries were prepared using the TruSeq nano DNA Library preparation kit (Illumina, San Diego, USA) according to the manufacturer's instructions. […] The final libraries were quantified using a Quant-iT™ PicoGreen™ ds DNA Assay Kit (Thermo Fisher Scientific, Waltham, USA) and equimolarly pooled prior to sequencing. […] Quality of the reads in fastq format was checked with the software FastQC (version 0.11.8). […]

Ruminococcaceae family [2] = test: Gut microbiota composition in TRAMP-C1 mice under bipolar androgen therapy; type: in vivo, mouse; settings: high dose of testosterone vs vehicle
Description: FIG. 7—Pten^pc−/− and LNCaP castrated mice harbor a peculiar gut microbiota. […] (E) qPCR showing the abundance of R. gnavus and B. acidifaciens in feces of LNCaP mice that were either sham-operated (n=4), CTX (n=6), CTX+enzalutamide (n=6) at 85 days. TRAMP-C1 mouse models were treated with either vehicle or high dose of testosterone as per bipolar androgen therapy. (F) Tumor volume (vehicle n=5, high testosterone n=5). (G) Serum testosterone levels (vehicle n=5, high-testosterone n=5). (H) Heatmap representing differentially abundant bacteria (FDR<0.05) between mice injected with vehicle or high testosterone-dose (vehicle n=4, high-testosterone n=4). […]
Pten^pc−/− Murine 16S rDNA sequencing analysis and bacteria qPCR. […] DNA was extracted using a GNOME DNA isolation kit (MP) following the protocol described in (J. P. Furet et al., Comparative assessment of human and farm animal faecal microbiota using real-time quantitative PCR. FEMS Microbiol Ecol 68, 351-362 (2009)). […] In short, DNA concentration and quality were evaluated using NanoDrop 2000. […] PCR products were visualized on an agarose gel then quantified by qPCR using the KAPA Library Quantification Kit (KAPA Biosystems, KK4824). […] The pooled library was purified using the Agencourt AMPure XP kit (Beckman Coulter, A63880) and quantified with the same method prior to sequence using paired-end (read length=300 bases) on Illumina MiSeq. […]

TRAMP-C1 cells = test: TRAMP-C1 allograft tumor model, castrated (CTX) or sham-operated mice; settings: high dose of testosterone vs vehicle
Description: C57BL6/N mice were challenged s.c. with 2.5×10^6 TRAMP-C1 cells. When tumors became palpable, mice were either castrated (CTX) or sham-operated (sham). After surgery, mice were either administered normal drinking water or antibiotic cocktail (ABX: neomycin 1 g/L, ampicillin 1 g/L, vancomycin 0.5 g/L and metronidazole 2 mg/mouse every other day). (A) Tumor volume (Sham n=14, Sham ABX n=4, CTX n=20, CTX ABX n=10) and (B) survival curve. […] Statistical analysis was performed with: (A), (F), (G) two-way ANOVA and Sidak's multiple comparison test; (B), (H), (1) Mantel Cox test; (C), (E), (K) unpaired two-sided Student's t-test. NS, not significant; *P<0.05; **P<0.01; ***P<0.001; ****P<0.0001.
Mice. […] 4 weeks old male C57BL6/N and NOD/SCID mice were purchased from Charles River (Calco, Italy) and acclimatized for four weeks before experimentation.

Row | Compound | expansion of Ruminococcaceae family in gut microbiota (Ruminococcaceae family [1]) | abundance of Ruminococcaceae family (Ruminococcaceae family [2]) | tumor volume (TRAMP-C1 cells)
1 | CNC(=O)c1ccc(N2C(=S)N(c3ccc(C#N)c(C(F)(F)F)c3)C(=O)C2(C)C)cc1F [Enzalutamide] | presented an expansion of Ruminococcaceae family |  | 
2 | C[C@]12CC[C@H]3[C@@H](CCC4=CC(=O)CC[C@@]43C)[C@@H]1CC[C@@H]2O [bipolar androgen therapy, Testosterone] |  | decreased the abundance of Ruminococcaceae family | promoted tumor inhibition

Source: patent US20250268958A1, “COMMENSAL BACTERIA PROMOTE ENDOCRINE-RESISTANCE IN PROSTATE CANCER VIA ANDROGEN BIOSYNTHESIS” (FONDAZIONE PER L'ISTITUTO ONCOLOGICO DI RICERCA (IOR), priority 2021, published 2025)
